# According to EP0745595A1, “3-(3-Aryloxyphenyl)-1-(substituted methyl)-s-triazine-2,4,6-oxo or thiotrione herbicidal agents” (American Cyanamid Company, priority 1995, dated 1996):
# Columns and labels:
# Assay type in all cases: in vivo
# [1] = tested on: CHENOPODIUM ALBUM, L.; assay: Preemergence herbicidal evaluation, CHEAL (Lambsquarters, Common); settings: rated four to five weeks after treatment
# Description: (§1) Results of herbicide evaluation are expressed on a rating scale (0-9). The scale is based upon a visual observation of plant stand, vigor, malformation, size, chlorosis and overall plant appearance as compared with a control.
# The preemergence herbicidal activity of the test compounds of the present invention is exemplified by the following tests in which the seeds of a variety of monocotyledonous and dicotyledonous plants are separately mixed with potting soil and planted on top of approximately one inch of soil in separate pint cups. […] The treated cups are then placed on greenhouse benches, watered and cared for in accordance with conventional greenhouse procedures. From four to five weeks after treatment, the tests are terminated and each cup is examined and rated according to the rating system provided in Example 40.
# The compounds evaluated are reported by compound number given in Example 40.
# [2] = tested on: CYPERUS IRIA; assay: Preemergence weed control under flooded paddy conditions, CYPIR (Rice Flatsedge); settings: preemergence, 3-4 weeks after treatment
# Experimental: as §1
# (§2) Preemergence herbicidal activity under flooded paddy conditions is determined as follows: plant seeds or propagating organs are planted in the top 0.5 cm of silt loam soil in 32 oz. plastic containers with a diameter of 10.5 cm and no drainage holes. Water is added to these containers and maintained at 1.5 to 3 cm above the soil surface for the duration of the experiment. […] The treated containers are placed on greenhouse benches and cared for according to normal greenhouse procedures.- Three to four weeks after treatment the test is terminated and each container is examined and herbicidal effect rated according to the rating system provided in Example 40. The compounds evaluated are reported by compound number given in Example 40.
# (§3) Plant species employed in this example are reported by header abbreviation, common name and scientific name.
# [3] = tested on: CYPERUS SEROTINUS, ROTTB.; assay: Preemergence weed control under flooded paddy conditions, CYPSE (Flatsedge); settings: preemergence, 3-4 weeks after treatment
# Experimental: as §1, §2, §3
# [4] = tested on: […], PRESL.; assay: Preemergence weed control under flooded paddy conditions, MOOVA (Monochoria); settings: preemergence, 3-4 weeks after treatment
# Experimental: as §1
# Preemergence herbicidal activity under flooded paddy conditions is determined as follows: plant seeds or propagating organs are planted in the top 0.5 cm of silt loam soil in 32 oz. plastic containers with a diameter of 10.5 cm and no drainage holes. Water is added to these containers and maintained at 1.5 to 3 cm above the soil surface for the duration of the experiment. The test compounds are applied as aqueous/acetone mixtures 50/50 v/v pipetted directly into the flood water to give the equivalent of about 0.5, 0.25, 0.125 and 0.063 kg/ha of active ingredient. The treated containers are placed on greenhouse benches and cared for according to normal greenhouse procedures.- Three to four weeks after treatment the test is terminated and each container is examined and herbicidal effect rated according to the rating system provided in Example 40. The compounds evaluated are reported by compound number given in Example 40.
# as §3
# [5] = tested on: SAGITTARIA PYGMAEA, L.; assay: Preemergence weed control under flooded paddy conditions, SAGPY (Arrowhead (Pygmaea)); settings: preemergence, 3-4 weeks after treatment
# Experimental: as §1, §2, §3
# [6] = tested on: ORYZA SATIVA, L. TEBONNET; assay: Rice tolerance to post-transplant applications under flooded paddy conditions, ORYSAT (Rice, Tebonnet); settings: post-transplant rice, 3-4 weeks after treatment
# Experimental: as §1
# The tolerance of transplanted rice to post-transplanted herbicide applications is determined as follows: two ten-day-old rice seedlings (CV. Tebonnet) are transplanted into a silt loam soil in 32 oz. plastic containers with a diameter of 10.5 cm and no drainage holes. After transplanting the containers are flooded and the water level is maintained at 1.5 to 3 cm above the soil surface. […] The treated containers are placed on greenhouse benches, watered such that the water level is maintained as stated above, and cared for according to normal greenhouse procedures. Three to four weeks after treatment the test is terminated and each container is examined and herbicidal effect rated according to the rating system provided in Example 40. The compounds evaluated are reported by compound number given in Example 40.
# as §3
smiles,measurement,setting,value
"COC(=O)Cn1c(=O)n(C)c(=O)n(-c2cc(Oc3c(Cl)cc(Cl)cc3Cl)ccc2[N+](=O)[O-])c1=O [Compound 33, Methyl tetrahydro-3-methyl-5-[2-nitro-5-(2,4,6-trichlorophenoxy)phenyl]-2,4,6-trioxo-s-triazine-1(2H)-acetate]",CHEAL herbicidal rating,[1]; Rate 0.125 kg/ha,9.0
same,CHEAL herbicidal rating,[1]; Rate 0.250 kg/ha,9.0
same,CHEAL herbicidal rating,[1]; Rate 0.500 kg/ha,9.0
same,"Herbicidal effect rating, CYPIR",[2]; 0.063 kg/ha,9.0
same,"Herbicidal effect rating, CYPIR",[2]; 0.125 kg/ha,9.0
same,"Herbicidal effect rating, CYPIR",[2]; 0.250 kg/ha,9.0
same,"Herbicidal effect rating, CYPIR",[2]; 0.500 kg/ha,9.0
same,"Herbicidal effect rating, CYPSE",[3]; 0.063 kg/ha,0.0
same,"Herbicidal effect rating, CYPSE",[3]; 0.125 kg/ha,0.0
same,"Herbicidal effect rating, CYPSE",[3]; 0.250 kg/ha,0.0
same,"Herbicidal effect rating, CYPSE",[3]; 0.500 kg/ha,0.0
same,"Herbicidal effect rating, MOOVA",[4]; 0.063 kg/ha,9.0
same,"Herbicidal effect rating, MOOVA",[4]; 0.125 kg/ha,9.0
same,"Herbicidal effect rating, MOOVA",[4]; 0.250 kg/ha,9.0
same,"Herbicidal effect rating, MOOVA",[4]; 0.500 kg/ha,9.0
same,"Herbicidal effect rating, SAGPY",[5]; 0.063 kg/ha,0.0
same,"Herbicidal effect rating, SAGPY",[5]; 0.125 kg/ha,0.0
same,"Herbicidal effect rating, SAGPY",[5]; 0.250 kg/ha,0.0
same,"Herbicidal effect rating, SAGPY",[5]; 0.500 kg/ha,0.0
same,"Herbicidal effect rating, ORYSAT",[6]; 0.063 kg/ha,3.0
same,"Herbicidal effect rating, ORYSAT",[6]; 0.125 kg/ha,3.0
same,"Herbicidal effect rating, ORYSAT",[6]; 0.250 kg/ha,3.0
same,"Herbicidal effect rating, ORYSAT",[6]; 0.500 kg/ha,4.0
